As usually defined, the Ki is the dissociation constant of the complex between target and ligand, obtained from inhibition or displacement.

The target of this assay is T1, microsomal Ca2+-ATPase (SERCA).
T1 construct: native enzyme in microsomal membranes isolated from SH-SY5Y cells
Description: Ca2+-dependent ATP hydrolysis (phosphate liberation assay) in SH-SY5Y microsomes. The format is biochemical.
Turning to `CC(C)(c1cc(Br)c(O)c(Br)c1)c1cc(Br)c(O)c(Br)c1` [Tetrabromobisphenol-A], the Ki is 9 ± 2 µM.
Take `Brc1c(Br)c(Br)c(Oc2c(Br)c(Br)c(Br)c(Br)c2Br)c(Br)c1Br` [decabromodiphenyl ether]: the Ki amounted to 41 ± 7 µM.
On to `BrC1CCC(Br)C(Br)CCC(Br)C(Br)CCC1Br` (stereo not drawn) [hexabromocyclododecane], for which the Ki came out at 3.5 ± 1.2 µM.

The values above are taken from PMC3317662, “Some Commonly Used Brominated Flame Retardants Cause Ca^2+-ATPase Inhibition, Beta-Amyloid Peptide Release and Apoptosis in SH-SY5Y Neuronal Cells” (PLoS ONE, 2012).
